Data published in patent US11220510B2, “Pyrrole tricyclic compounds as A2A / A2B inhibitors” (Incyte Corporation, priority 2018, dated 2022).

Experiments:
[1] = molecular target: human adenosine A2B receptor (Homo sapiens (Human), UniProt P29275); test: Adenosine A2B Receptor Cyclic AMP GS Assay; assay type: cell-based; details: HEK-293 cells expressing human A2B; agonist NECA 12 nM; cAMP accumulation by FRET; read-out: A2B_cAMP_EC50
Procedure: Example B. Adenosine A2B Receptor Cyclic AMP GS Assay Stably transfected HEK-293 cells expressing the human adenosine A2B receptor (Perkin Elmer) were maintained in MEM culture medium with 10% FBS and 100 μg/ml Geneticin (Life Technologies). 18 to 24 hours prior to assay, geneticin was removed from culture. The cisbio cAMP-GS Dynamic kit utilizing the FRET (Fluorescence Resonance Energy Transfer) technology was used to measure cAMP accumulation in the cells. Compounds of the present disclosure at an appropriate concentration were mixed with 10000 cells/well in white 96 well half area plates (Perkin Elmer) for 30 min at room temperature gently shaking. Agonist, NECA (R&D Technologies) at 12 nM was added to each well for 60 min at room temperature gently shaking. Detection reagents, d2-labeled cAMP (acceptor) and anti-cAMP cryptate (donor) were added to each well for 60 min at RT gently shaking. Plates were read on Pherastar (BMG Labtech), fluorescence ratio 665/620 was calculated and EC50 determination was performed by fitting the curve of percent of control versus the log of the compound concentration using GraphPad Prism.

[2] = molecular target: Adenosine A2A receptor (Tag-lite Adenosine A2A labeled cells) (Homo sapiens (Human), UniProt P29274); test: A2A Tag-lite HTRF assay (fluorescent ligand displacement); details: Red antagonist fluorescent ligand 12.5 nM, one-site competitive binding model, read-out: A2A_Ki
Description: Example C. A2A Tag-Lite® HTRF Assay
The final concentration of DMSO was 1%.

Chain of human adenosine A2B receptor (P29275 whole entry): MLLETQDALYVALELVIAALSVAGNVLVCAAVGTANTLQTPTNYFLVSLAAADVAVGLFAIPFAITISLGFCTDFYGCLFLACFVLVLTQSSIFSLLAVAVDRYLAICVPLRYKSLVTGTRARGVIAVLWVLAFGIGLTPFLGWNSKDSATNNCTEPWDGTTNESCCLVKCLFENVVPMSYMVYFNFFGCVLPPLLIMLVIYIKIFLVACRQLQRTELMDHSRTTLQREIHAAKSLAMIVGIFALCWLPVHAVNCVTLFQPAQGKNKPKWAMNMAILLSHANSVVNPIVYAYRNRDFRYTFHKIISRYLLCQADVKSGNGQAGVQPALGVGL
Chain of Adenosine A2A receptor (Tag-lite Adenosine A2A labeled cells) (P29274 whole entry): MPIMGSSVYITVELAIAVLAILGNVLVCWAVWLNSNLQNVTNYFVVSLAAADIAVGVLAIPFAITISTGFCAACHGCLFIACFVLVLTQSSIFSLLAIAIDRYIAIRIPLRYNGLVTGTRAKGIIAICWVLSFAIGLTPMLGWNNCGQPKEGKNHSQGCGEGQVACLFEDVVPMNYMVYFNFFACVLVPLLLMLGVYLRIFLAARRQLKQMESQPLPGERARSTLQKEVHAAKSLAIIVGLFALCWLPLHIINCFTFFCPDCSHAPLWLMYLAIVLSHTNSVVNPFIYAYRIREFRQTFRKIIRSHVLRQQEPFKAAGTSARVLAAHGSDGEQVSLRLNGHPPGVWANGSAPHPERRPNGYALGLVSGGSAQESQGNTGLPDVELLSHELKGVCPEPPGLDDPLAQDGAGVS

Row | EC50 [1] | Ki [2] | Structure (SMILES)
1 | 10 to 100 nM | < 10 nM | CCCCCn1c2cc(-c3cnn(C4CN(c5nccc(C#N)n5)C4)c3)[nH]c2c(=O)n2c(C)nnc12 [Example 20, 2-(3-(4-(3-Methyl-5-oxo-9-pentyl-6,9-dihydro-5H-pyrrolo[3,2-d][1,2,4]triazolo[4,3-a]pyrimidin-7-yl)-1H-pyrazol-1-yl)azetidin-1-yl)pyrimidine-4-carbonitrile]
2 | < 10 nM | < 10 nM | CCCCCn1c2cc(-c3cnn(Cc4cnc5ccsc5c4)c3)[nH]c2c(=O)n2c(C)nnc12 [Example 4, 3-Methyl-9-pentyl-7-(1-(thieno[3,2-b]pyridin-6-ylmethyl)-1H-pyrazol-4-yl)-6,9-dihydro-5H-pyrrolo[3,2-d][1,2,4]triazolo[4,3-a]pyrimidin-5-one]
3 | 10 to 100 nM | < 10 nM | CCCCn1c2cc(-c3cnn(C4CN(c5ncccn5)C4)c3)[nH]c2c(=O)n2c(C)nnc12 [Example 24, 9-Butyl-3-methyl-7-(1-(1-(pyrimidin-2-yl)azetidin-3-yl)-1H-pyrazol-4-yl)-6,9-dihydro-5H-pyrrolo[3,2-d][1,2,4]triazolo[4,3-a]pyrimidin-5-one]
4 | 10 to 100 nM | < 10 nM | CCCCCn1c2cc(-c3cnn(Cc4cnc5cnn(C)c5c4)c3)[nH]c2c(=O)n2c(C)nnc12 [Example 7, 3-Methyl-7-(1-((1-methyl-1H-pyrazolo[4,3-b]pyridin-6-yl)methyl)-1H-pyrazol-4-yl)-9-pentyl-6,9-dihydro-5H-pyrrolo[3,2-d][1,2,4]triazolo[4,3-a]pyrimidin-5-one]
5 | 10 to 100 nM | < 10 nM | CCCCn1c2cc(-c3cnn(C4CN(c5nccc(N)n5)C4)c3)[nH]c2c(=O)n2c(C)nnc12 [Example 28, 7-(1-(1-(4-Aminopyrimidin-2-yl)azetidin-3-yl)-1H-pyrazol-4-yl)-9-butyl-3-methyl-6,9-dihydro-5H-pyrrolo[3,2-d][1,2,4]triazolo[4,3-a]pyrimidin-5-one]
6 | 10 to 100 nM | < 10 nM | CCCCCn1c2cc(-c3cnn(C4CN(c5nccc(N)n5)C4)c3)[nH]c2c(=O)n2c(C)nnc12 [Example 21, 7-(1-(1-(4-Aminopyrimidin-2-yl)azetidin-3-yl)-1H-pyrazol-4-yl)-3-methyl-9-pentyl-6,9-dihydro-5H-pyrrolo[3,2-d][1,2,4]triazolo[4,3-a]pyrimidin-5-one]
7 | 10 to 100 nM | < 10 nM | CCCCCn1c2cc(-c3cnn(Cc4cnc5cccnc5c4)c3)[nH]c2c(=O)n2c(C)nnc12 [Example 6, 7-(1-((1,5-Naphthyridin-3-yl)methyl)-1H-pyrazol-4-yl)-3-methyl-9-pentyl-6,9-dihydro-5H-pyrrolo[3,2-d][1,2,4]triazolo[4,3-a]pyrimidin-5-one]
8 | 10 to 100 nM | < 10 nM | CCCCCn1c2cc(-c3cnn(C4CN(c5nccc(NCCO)n5)C4)c3)[nH]c2c(=O)n2c(C)nnc12 [Example 22, 7-(1-(1-(4-(2-Hydroxyethylamino)pyrimidin-2-yl)azetidin-3-yl)-1H-pyrazol-4-yl)-3-methyl-9-pentyl-6,9-dihydro-5H-pyrrolo[3,2-d][1,2,4]triazolo[4,3-a]pyrimidin-5-one]
9 | 10 to 100 nM | < 10 nM | CCCCCn1c2cc(-c3cnn(C4CN(c5nccc(NC)n5)C4)c3)[nH]c2c(=O)n2c(C)nnc12 [Example 23, 3-Methyl-7-(1-(1-(4-(methylamino)pyrimidin-2-yl)azetidin-3-yl)-1H-pyrazol-4-yl)-9-pentyl-6,9-dihydro-5H-pyrrolo[3,2-d][1,2,4]triazolo[4,3-a]pyrimidin-5-one]

Further lines, the compound ahead of its results:

Row | Structure (SMILES) | EC50 [1] | Ki [2]
10 | CCCCn1c2cc(-c3cnn(C4CN(c5nccc(C)n5)C4)c3)[nH]c2c(=O)n2c(C)nnc12 [Example 26, 9-Butyl-3-methyl-7-(1-(1-(4-methylpyrimidin-2-yl)azetidin-3-yl)-1H-pyrazol-4-yl)-6,9-dihydro-5H-pyrrolo[3,2-d][1,2,4]triazolo[4,3-a]pyrimidin-5-one] | 10 to 100 nM | < 10 nM
11 | CCCCCn1c2cc(-c3cnn(Cc4ccc5c(c4)CCN(C(=O)CN(C)C)C5)c3)[nH]c2c(=O)n2c(C)nnc12 [Example 30, 7-(1-((2-(2-(Dimethylamino)acetyl)-1,2,3,4-tetrahydroisoquinolin-6-yl)methyl)-1H-pyrazol-4-yl)-3-methyl-9-pentyl-6,9-dihydro-5H-pyrrolo[3,2-d][1,2,4]triazolo[4,3-a]pyrimidin-5-one] | < 10 nM | < 10 nM
12 | CCCCn1c2cc(-c3cnn(C4CN(c5nccc(OC)n5)C4)c3)[nH]c2c(=O)n2c(C)nnc12 [Example 27, 9-Butyl-7-(1-(1-(4-methoxypyrimidin-2-yl)azetidin-3-yl)-1H-pyrazol-4-yl)-3-methyl-6,9-dihydro-5H-pyrrolo[3,2-d][1,2,4]triazolo[4,3-a]pyrimidin-5-one] | 10 to 100 nM | < 10 nM
13 | CCCCCn1c2cc(-c3cnn(Cc4cnc5cccnc5c4)c3)[nH]c2c(=O)n2c(C(F)(F)F)nnc12 [Example 12, 7-(1-((1,5-Naphthyridin-3-yl)methyl)-1H-pyrazol-4-yl)-9-pentyl-3-(trifluoromethyl)-6,9-dihydro-5H-pyrrolo[3,2-d][1,2,4]triazolo[4,3-a]pyrimidin-5-one] | < 10 nM | < 10 nM
14 | CCCCCn1c2cc(-c3cnn(Cc4cccnc4)c3)[nH]c2c(=O)n2c(C)nnc12 [Example 8, 3-Methyl-9-pentyl-7-(1-(pyridin-3-ylmethyl)-1H-pyrazol-4-yl)-6,9-dihydro-5H-pyrrolo[3,2-d][1,2,4]triazolo[4,3-a]pyrimidin-5-one] | 10 to 100 nM | < 10 nM
15 | CCCCCn1c2cc(-c3cnn(Cc4cncc(C)c4)c3)[nH]c2c(=O)n2c(C)nnc12 [Example 3, 3-Methyl-7-(1-((5-methylpyridin-3-yl)methyl)-1H-pyrazol-4-yl)-9-pentyl-6,9-dihydro-5H-pyrrolo[3,2-d][1,2,4]triazolo[4,3-a]pyrimidin-5-one] | < 10 nM | < 10 nM
16 | CCCCn1c2cc(-c3cnn(C4CN(c5ncc(F)c(N)n5)C4)c3)[nH]c2c(=O)n2c(C)nnc12 [Example 29, 7-(1-(1-(4-Amino-5-fluoropyrimidin-2-yl)azetidin-3-yl)-1H-pyrazol-4-yl)-9-butyl-3-methyl-6,9-dihydro-5H-pyrrolo[3,2-d][1,2,4]triazolo[4,3-a]pyrimidin-5-one] | 10 to 100 nM | < 10 nM
17 | CCCCn1c2cc(-c3cnn(C4CN(c5nccc(C#N)n5)C4)c3)[nH]c2c(=O)n2c(C)nnc12 [Example 25, 2-(3-(4-(9-Butyl-3-methyl-5-oxo-6,9-dihydro-5H-pyrrolo[3,2-d][1,2,4]triazolo[4,3-a]pyrimidin-7-yl)-1H-pyrazol-1-yl)azetidin-1-yl)pyrimidine-4-carbonitrile] | 10 to 100 nM | < 10 nM
